According to US10765114B2, “4-amino-6-(pyridyl and 2-substitutedphenyl)-picolinates and 6-amino-2-(pyridyl and 2-substitutedphenyl)-pyrimidine-4-carboxylates and their use as herbicides” (Dow AgroSciences LLC, priority 2013, dated 2020):

These compounds were tested on SEBEX: hemp sesbania, Sesbania exaltata (assay: Postemergence Herbicidal Activity in Direct Seeded Rice). Conditions: 35 g ai/ha, postemergence, direct seeded rice.
Assay type: in vivo
Description: (§1) Seeds or nutlets of the desired test plant species were planted in a soil matrix prepared by mixing a loam soil (43 percent silt, 19 percent clay, and 38 percent sand, with a pH of about 8.1 and an organic matter content of about 1.5 percent) and river sand in an 80 to 20 ratio. The soil matrix was contained in plastic pots with a surface area of 139.7 cm^2. When required to ensure good germination and healthy plants, a fungicide treatment and/or other chemical or physical treatment was applied. The plants were grown for 10-17 days in a greenhouse with an approximate 14-h photoperiod which was maintained at about 29° C. during the day and 26° C. during the night. Nutrients and water were added on a regular basis and supplemental lighting was provided with overhead metal halide 1000-Watt lamps as necessary. The plants were employed for testing when they reached the second or third true leaf stage.
(§2) A weighed amount, determined by the highest rate to be tested, of each test compound was placed in 25 mL glass vials and dissolved in a volume of 97:3 v/v acetone-DMSO to obtain 12× stock solutions. […] The concentrated stock solutions were added to the spray solutions so that the final acetone and DMSO concentrations were 16.2% and 0.5%, respectively. Spray solutions were diluted to the appropriate final concentrations with the addition of 10 mL of an aqueous mixture of 1.5% (v/v) Agri-dex crop oil concentrate. The final spray solutions contained 1.25% (v/v) Agri-dex crop oil concentrate. Compound requirements are based upon a 12 mL application volume at a rate of 187 L/ha. Formulated compounds were applied to the plant material with an overhead Mandel track sprayer equipped with 8002E nozzles calibrated to deliver 187 L/ha over an application area of 0.503 square meters (m^2) at a spray height of 18 inches (43 cm) above average plant canopy height. Control plants were sprayed in the same manner with the solvent blank.
(§3) The treated plants and control plants were placed in a greenhouse as described above and watered by sub-irrigation to prevent wash-off of the test compounds. After 20-22 days, the condition of the test plants, compared with that of the untreated plants, was determined visually and scored on a scale of 0 to 100 percent where 0 corresponds to no injury and 100 corresponds to complete kill and presented as indicated in Table A.
(§4) By applying the well-accepted probit analysis as described by J. Berkson in Journal of the American Statistical Society, 48, 565 (1953) and by D. Finney in “Probit Analysis” Cambridge University Press (1952), herbicidal injury of a specific compound at various rates can be used to calculate GR20, GR50, GR80 and GR90 values, which are defined as growth reduction factors that correspond to the effective dose of herbicide required to provide plant growth reduction (GR) of 20 percent, 50 percent, 80 percent and 90 percent, respectively. Probit analysis was applied to data collected from multiple dose rates of individual compounds utilizing the procedures explained in the following examples. The analysis of those dose rates is captured in the following tables
For `COC(=O)c1nc(-c2ccc(C(F)(F)F)nc2)c(Cl)c(N)c1Cl` [Compound 83], the “Visual Growth Reduction (%) 21 Days After Application, SEBEX” value was “A (95-100)”.

Same assay, conditions: 70 g ai/ha, postemergence, direct seeded rice
With `COC(=O)c1nc(-c2ccc(C(F)(F)F)nc2)c(Cl)c(N)c1Cl` [Compound 83] the “Visual Growth Reduction (%) 21 Days After Application, SEBEX” value was “A (95-100)”.

Same assay, conditions: Growth reduction of 50% of plant growth, probit analysis
For `COC(=O)c1nc(-c2ccc(C(F)(F)F)nc2)c(Cl)c(N)c1Cl` [Compound 83], the “GR50, SEBEX” value was 2 g ai/ha.

Same assay, conditions: Growth reduction of 80% of plant growth, probit analysis
With `COC(=O)c1nc(-c2ccc(C(F)(F)F)nc2)c(Cl)c(N)c1Cl` [Compound 83] the “GR80, SEBEX” value was 5 g ai/ha.

Each compound was assayed on BRAPP: broadleaf signalgrass, Brachiaria platyphylla in the same assay as above. Conditions: 35 g ai/ha, postemergence, direct seeded rice.
Assay type: in vivo
Description: as §1, §2, §3, §4
With `COC(=O)c1nc(-c2ccc(C(F)(F)F)nc2)c(Cl)c(N)c1Cl` [Compound 83] the “Visual Growth Reduction (%) 21 Days After Application, BRAPP” value was “A (95-100)”.

Same assay, conditions: 70 g ai/ha, postemergence, direct seeded rice
For `COC(=O)c1nc(-c2ccc(C(F)(F)F)nc2)c(Cl)c(N)c1Cl` [Compound 83], the “Visual Growth Reduction (%) 21 Days After Application, BRAPP” value was “A (95-100)”.

Same assay, conditions: Growth reduction of 50% of plant growth, probit analysis
`COC(=O)c1nc(-c2ccc(C(F)(F)F)nc2)c(Cl)c(N)c1Cl` [Compound 83] was tested, and the “GR50, BRAPP” value was 6 g ai/ha.

Same assay, conditions: Growth reduction of 80% of plant growth, probit analysis
`COC(=O)c1nc(-c2ccc(C(F)(F)F)nc2)c(Cl)c(N)c1Cl` [Compound 83] was tested, and the “GR80, BRAPP” value was 16 g ai/ha.

What follows are compounds tested on ORYSS: Oryza sativa in the same assay as above. Conditions: 35 g ai/ha, postemergence, direct seeded rice.
Assay type: in vivo
Description: as §1, §2, §3, §4
With `COC(=O)c1nc(-c2ccc(C(F)(F)F)nc2)c(Cl)c(N)c1Cl` [Compound 83] the “Visual Growth Reduction (%) 21 Days After Application, ORYSS” value was “E (45-59)”.

Same assay, conditions: 70 g ai/ha, postemergence, direct seeded rice
In the case of `COC(=O)c1nc(-c2ccc(C(F)(F)F)nc2)c(Cl)c(N)c1Cl` [Compound 83], the “Visual Growth Reduction (%) 21 Days After Application, ORYSS” value was “F (30-44)”.

Same assay, conditions: Growth reduction of 20% of plant growth, probit analysis
`COC(=O)c1nc(-c2ccc(C(F)(F)F)nc2)c(Cl)c(N)c1Cl` [Compound 83] was tested, and the “GR20, ORYSS” value was 23 g ai/ha.

The compounds below were run on CYPSS: sedge including small-flower flatsedge (Cyperus difformis), yellow nutsedge (Cyperus esculentus), rice flatsedge (Cyperus iria) in the same assay as above. Conditions: 35 g ai/ha, postemergence, direct seeded rice.
Assay type: in vivo
Description: as §1, §2, §3, §4
`COC(=O)c1nc(-c2ccc(C(F)(F)F)nc2)c(Cl)c(N)c1Cl` [Compound 83] was tested, and the “Visual Growth Reduction (%) 21 Days After Application, CYPSS” value was “A (95-100)”.

Same assay, conditions: 70 g ai/ha, postemergence, direct seeded rice
With `COC(=O)c1nc(-c2ccc(C(F)(F)F)nc2)c(Cl)c(N)c1Cl` [Compound 83] the “Visual Growth Reduction (%) 21 Days After Application, CYPSS” value was “A (95-100)”.

Same assay, conditions: Growth reduction of 50% of plant growth, probit analysis
In the case of `COC(=O)c1nc(-c2ccc(C(F)(F)F)nc2)c(Cl)c(N)c1Cl` [Compound 83], the “GR50, CYPSS” value was 2 g ai/ha.

Same assay, conditions: Growth reduction of 80% of plant growth, probit analysis
In the case of `COC(=O)c1nc(-c2ccc(C(F)(F)F)nc2)c(Cl)c(N)c1Cl` [Compound 83], the “GR80, CYPSS” value was 3 g ai/ha.

What follows are compounds tested on SCPJU: Japanese bulrush, Schoenoplectus juncoides in the same assay as above. Conditions: 35 g ai/ha, postemergence, direct seeded rice.
Assay type: in vivo
Description: as §1, §2, §3, §4
With `COC(=O)c1nc(-c2ccc(C(F)(F)F)nc2)c(Cl)c(N)c1Cl` [Compound 83] the “Visual Growth Reduction (%) 21 Days After Application, SCPJU” value was “A (95-100)”.

Same assay, conditions: 70 g ai/ha, postemergence, direct seeded rice
With `COC(=O)c1nc(-c2ccc(C(F)(F)F)nc2)c(Cl)c(N)c1Cl` [Compound 83] the “Visual Growth Reduction (%) 21 Days After Application, SCPJU” value was “A (95-100)”.

Same assay, conditions: Growth reduction of 50% of plant growth, probit analysis
For `COC(=O)c1nc(-c2ccc(C(F)(F)F)nc2)c(Cl)c(N)c1Cl` [Compound 83], the “GR50, SCPJU” value was under 17.5 g ai/ha.

Same assay, conditions: Growth reduction of 80% of plant growth, probit analysis
For `COC(=O)c1nc(-c2ccc(C(F)(F)F)nc2)c(Cl)c(N)c1Cl` [Compound 83], the “GR80, SCPJU” value was under 17.5 g ai/ha.

Each compound was assayed on ECHSS: including barnyardgrass, (Echinochloa crus-galli), junglerice, (Echinochloa colonum) in the same assay as above. Conditions: 35 g ai/ha, postemergence, direct seeded rice.
Assay type: in vivo
Description: as §1, §2, §3, §4
With `COC(=O)c1nc(-c2ccc(C(F)(F)F)nc2)c(Cl)c(N)c1Cl` [Compound 83] the “Visual Growth Reduction (%) 21 Days After Application, ECHSS” value was “A (95-100)”.

Same assay, conditions: 70 g ai/ha, postemergence, direct seeded rice
In the case of `COC(=O)c1nc(-c2ccc(C(F)(F)F)nc2)c(Cl)c(N)c1Cl` [Compound 83], the “Visual Growth Reduction (%) 21 Days After Application, ECHSS” value was “A (95-100)”.

Same assay, conditions: Growth reduction of 50% of plant growth, probit analysis
`COC(=O)c1nc(-c2ccc(C(F)(F)F)nc2)c(Cl)c(N)c1Cl` [Compound 83] was tested, and the “GR50, ECHSS” value was 3 g ai/ha.

Same assay, conditions: Growth reduction of 80% of plant growth, probit analysis
In the case of `COC(=O)c1nc(-c2ccc(C(F)(F)F)nc2)c(Cl)c(N)c1Cl` [Compound 83], the “GR80, ECHSS” value was 9 g ai/ha.

The compounds below were run on LEFSS: sprangletop including Chinese sprangletop (Leptochloa chinensis), green sprangletop (Leptochloa dubia) in the same assay as above. Conditions: 35 g ai/ha, postemergence, direct seeded rice.
Assay type: in vivo
Description: as §1, §2, §3, §4
With `COC(=O)c1nc(-c2ccc(C(F)(F)F)nc2)c(Cl)c(N)c1Cl` [Compound 83] the “Visual Growth Reduction (%) 21 Days After Application, LEFSS” value was “B (85-94)”.

Same assay, conditions: 70 g ai/ha, postemergence, direct seeded rice
With `COC(=O)c1nc(-c2ccc(C(F)(F)F)nc2)c(Cl)c(N)c1Cl` [Compound 83] the “Visual Growth Reduction (%) 21 Days After Application, LEFSS” value was “D (60-74)”.

Same assay, conditions: Growth reduction of 50% of plant growth, probit analysis
For `COC(=O)c1nc(-c2ccc(C(F)(F)F)nc2)c(Cl)c(N)c1Cl` [Compound 83], the “GR50, LEFSS” value was 27 g ai/ha.

Same assay, conditions: Growth reduction of 80% of plant growth, probit analysis
`COC(=O)c1nc(-c2ccc(C(F)(F)F)nc2)c(Cl)c(N)c1Cl` [Compound 83] was tested, and the “GR80, LEFSS” value was 53 g ai/ha.
